Measured values from US9708314B2, “Heterocyclic amide compound” (NISSAN CHEMICAL INDUSTRIES, LTD., priority 2013, dated 2017).

Assays:
Type in all cases: in vivo
[1] = system: Echinochloa crus-galli var. crus-galli; assay: Test Example 3: herbicidal effect by application to foliage (Wagner pot, water depth 0.1-0.5 cm); details: Nineteenth Table; application to foliage; application herbicide amount 320 g/ha
Method in brief: (§1)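 A small sprayer delivered the diluted emulsion uniformly to foliage at the chosen rate in g/ha, 14 days after sowing in Wagner pots held at 25–30 °C. Outcome: 0–5 herbicidal-ratio score read three weeks post-treatment.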

Cyperus difformis = assay: as above; details: Nineteenth Table; application to foliage; application herbicide amount 320 g/ha
Method in brief: as §1

Leptochloa chinensis = assay: as above; details: Nineteenth Table; application to foliage; application herbicide amount 320 g/ha
Method in brief: as §1

Chenopodium album = assay: Test Example 4: herbicidal effect by application to foliage (diluvial soil, plastic box); details: application to foliage, 320 g/ha
Method in brief: (§2)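 Scores run from 0 (herbicidal ratio ≤5%) to 5 (≥90%, almost fully withered) and were assessed three weeks after foliar spraying. Seedlings had been raised for 14 days at 25-30° C in sterilized diluvial soil before treatment, with the emulsion diluted in water to the stated g/ha dose.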

Lolium multiflorum Lam. = assay: as above; details: application to foliage, 320 g/ha
Method in brief: as §2

Veronica persica = assay: as above; details: application to foliage, 320 g/ha
Method in brief: as §2

[2] = system: Echinochloa crus-galli var. crus-galli; assay: as above; details: application to foliage, 320 g/ha
Method in brief: as §2

Avena fatua = assay: as above; details: application to foliage, 320 g/ha
Method in brief: as §2

Setaria viridis = assay: as above; details: application to foliage, 320 g/ha
Method in brief: as §2

Digitaria ciliaris = assay: as above; details: application to foliage, 320 g/ha
Method in brief: as §2

Stellaria media = assay: as above; details: application to foliage, 320 g/ha
Method in brief: as §2

Abutilon theophrasti = assay: as above; details: application to foliage, 320 g/ha
Method in brief: as §2

Amaranthus retroflexus = assay: as above; details: application to foliage, 320 g/ha
Method in brief: as §2

Alopecurus myosuroides = assay: as above; details: application to foliage, 320 g/ha
Method in brief: as §2

Apera spica-venti. = assay: as above; details: application to foliage, 320 g/ha
Method in brief: as §2

Galium spurium = assay: as above; details: application to foliage, 320 g/ha
Method in brief: as §2

[3] = system: directly sowed Oryza sativa; assay: Test Example 3: effect on crop by application to foliage (Wagner pot, water depth 0.1-0.5 cm); details: Nineteenth Table; application to foliage; application herbicide amount 320 g/ha
Method in brief: as §1

`Cn1nnnc1NC(=O)c1ccc(C(F)(F)F)n2c(N3CCSCC3)nnc12` [2-078] was tested, and the “H (herbicidal effect grade)” value [1] was 5 (Herbicidal ratio of 90% or more (almost completely withered)), the “E (herbicidal effect grade)” value (Cyperus difformis) was 3 (Herbicidal ratio of 40% or more and less than 70%) and the “D (herbicidal effect grade)” value (Leptochloa chinensis) was 5 (Herbicidal ratio of 90% or more (almost completely withered)). The “herbicidal effect, O (Chenopodium album)” value (Chenopodium album) was 5 (Herbicidal ratio of 90% or more (almost completely withered)), the “herbicidal effect, K (Lolium multiflorum Lam.)” value (from here on “herbicidal effect, K”) (Lolium multiflorum Lam.) was 4 (Herbicidal ratio of 70% or more and less than 90%) and the “herbicidal effect, R (Veronica persica)” value (Veronica persica) was 5 (Herbicidal ratio of 90% or more (almost completely withered)). The “herbicidal effect, H (Echinochloa crus-galli var. crus-galli)” value (shortened to “herbicidal effect, H”) [2] was 5 (Herbicidal ratio of 90% or more (almost completely withered)), the “herbicidal effect, I (Avena fatua)” value (Avena fatua) was 3 (Herbicidal ratio of 40% or more and less than 70%) and the “herbicidal effect, G (Setaria viridis)” value (Setaria viridis) was 5 (Herbicidal ratio of 90% or more (almost completely withered)). For the same molecule, the “herbicidal effect, F (Digitaria ciliaris)” value (“herbicidal effect, F” below) (Digitaria ciliaris) was 5 (Herbicidal ratio of 90% or more (almost completely withered)), the “herbicidal effect, P (Stellaria media)” value (Stellaria media) was 5 (Herbicidal ratio of 90% or more (almost completely withered)) and the “herbicidal effect, M (Abutilon theophrasti)” value (from here on “herbicidal effect, M”) (Abutilon theophrasti) was 5 (Herbicidal ratio of 90% or more (almost completely withered)). For the same molecule, the “herbicidal effect, N (Amaranthus retroflexus)” value (shortened to “herbicidal effect, N”) (Amaranthus retroflexus) was 5 (Herbicidal ratio of 90% or more (almost completely withered)), the “herbicidal effect, J (Alopecurus myosuroides)” value (“herbicidal effect, J” below) (Alopecurus myosuroides) was 4 (Herbicidal ratio of 70% or more and less than 90%) and the “herbicidal effect, L (Apera spica-venti.)” value (from here on “herbicidal effect, L”) (Apera spica-venti.) was 5 (Herbicidal ratio of 90% or more (almost completely withered)). For the same molecule, the “herbicidal effect, Q (Galium spurium)” value (Galium spurium) was 4 (Herbicidal ratio of 70% or more and less than 90%) and the “b (effect on crop grade)” value [3] was 4 (Herbicidal ratio of 70% or more and less than 90%).
In the case of `COCCN(C)c1nnc2c(C(=O)Nc3nnnn3C)ccc(C(F)(F)F)n12` [2-079], the “H (herbicidal effect grade)” value [1] is reported as 5 (Herbicidal ratio of 90% or more (almost completely withered)), the “E (herbicidal effect grade)” value (Cyperus difformis) is reported as 5 (Herbicidal ratio of 90% or more (almost completely withered)) and the “D (herbicidal effect grade)” value (Leptochloa chinensis) is reported as 5 (Herbicidal ratio of 90% or more (almost completely withered)). The “herbicidal effect, O (Chenopodium album)” value (Chenopodium album) was 5 (Herbicidal ratio of 90% or more (almost completely withered)), the “herbicidal effect, K” value (Lolium multiflorum Lam.) was 2 (Herbicidal ratio of 20% or more and less than 40%) and the “herbicidal effect, R (Veronica persica)” value (Veronica persica) was 5 (Herbicidal ratio of 90% or more (almost completely withered)). For the same molecule, the “herbicidal effect, H” value [2] was 5 (Herbicidal ratio of 90% or more (almost completely withered)), the “herbicidal effect, I (Avena fatua)” value (Avena fatua) was 3 (Herbicidal ratio of 40% or more and less than 70%) and the “herbicidal effect, G (Setaria viridis)” value (Setaria viridis) was 5 (Herbicidal ratio of 90% or more (almost completely withered)). The “herbicidal effect, F” value (Digitaria ciliaris) was 5 (Herbicidal ratio of 90% or more (almost completely withered)), the “herbicidal effect, P (Stellaria media)” value (Stellaria media) was 5 (Herbicidal ratio of 90% or more (almost completely withered)) and the “herbicidal effect, M” value (Abutilon theophrasti) was 5 (Herbicidal ratio of 90% or more (almost completely withered)). For the same molecule, the “herbicidal effect, N” value (Amaranthus retroflexus) was 5 (Herbicidal ratio of 90% or more (almost completely withered)), the “herbicidal effect, J” value (Alopecurus myosuroides) was 4 (Herbicidal ratio of 70% or more and less than 90%) and the “herbicidal effect, L” value (Apera spica-venti.) was 5 (Herbicidal ratio of 90% or more (almost completely withered)). For the same molecule, the “herbicidal effect, Q (Galium spurium)” value (Galium spurium) was 4 (Herbicidal ratio of 70% or more and less than 90%) and the “b (effect on crop grade)” value [3] was 5 (Herbicidal ratio of 90% or more (almost completely withered)).
For `CSCCNc1nnc2c(C(=O)Nc3nnnn3C)ccc(C(F)(F)F)n12` [2-080], the “H (herbicidal effect grade)” value [1] was 4 (Herbicidal ratio of 70% or more and less than 90%), the “E (herbicidal effect grade)” value (Cyperus difformis) was 5 (Herbicidal ratio of 90% or more (almost completely withered)) and the “D (herbicidal effect grade)” value (Leptochloa chinensis) was 5 (Herbicidal ratio of 90% or more (almost completely withered)). The “herbicidal effect, O (Chenopodium album)” value (Chenopodium album) was 5 (Herbicidal ratio of 90% or more (almost completely withered)), the “herbicidal effect, K” value (Lolium multiflorum Lam.) was 0 (Herbicidal ratio of 5% or less (almost no effect)) and the “herbicidal effect, R (Veronica persica)” value (Veronica persica) was 5 (Herbicidal ratio of 90% or more (almost completely withered)). For the same molecule, the “herbicidal effect, H” value [2] was 5 (Herbicidal ratio of 90% or more (almost completely withered)), the “herbicidal effect, I (Avena fatua)” value (Avena fatua) was 1 (Herbicidal ratio of 5% or more and less than 20%) and the “herbicidal effect, G (Setaria viridis)” value (Setaria viridis) was 3 (Herbicidal ratio of 40% or more and less than 70%). The “herbicidal effect, F” value (Digitaria ciliaris) was 5 (Herbicidal ratio of 90% or more (almost completely withered)), the “herbicidal effect, P (Stellaria media)” value (Stellaria media) was 4 (Herbicidal ratio of 70% or more and less than 90%) and the “herbicidal effect, M” value (Abutilon theophrasti) was 5 (Herbicidal ratio of 90% or more (almost completely withered)). The “herbicidal effect, N” value (Amaranthus retroflexus) was 5 (Herbicidal ratio of 90% or more (almost completely withered)), the “herbicidal effect, J” value (Alopecurus myosuroides) was 1 (Herbicidal ratio of 5% or more and less than 20%) and the “herbicidal effect, L” value (Apera spica-venti.) was 3 (Herbicidal ratio of 40% or more and less than 70%). The “herbicidal effect, Q (Galium spurium)” value (Galium spurium) was 4 (Herbicidal ratio of 70% or more and less than 90%) and the “b (effect on crop grade)” value [3] was 3 (Herbicidal ratio of 40% or more and less than 70%).
In the case of `Cn1nnnc1NC(=O)c1ccc(C(F)(F)F)n2c(NCC(F)(F)F)nnc12` [2-081], the “H (herbicidal effect grade)” value [1] is reported as 5 (Herbicidal ratio of 90% or more (almost completely withered)), the “E (herbicidal effect grade)” value (Cyperus difformis) is reported as 5 (Herbicidal ratio of 90% or more (almost completely withered)) and the “D (herbicidal effect grade)” value (Leptochloa chinensis) is reported as 5 (Herbicidal ratio of 90% or more (almost completely withered)). For the same molecule, the “herbicidal effect, O (Chenopodium album)” value (Chenopodium album) was 5 (Herbicidal ratio of 90% or more (almost completely withered)), the “herbicidal effect, K” value (Lolium multiflorum Lam.) was 1 (Herbicidal ratio of 5% or more and less than 20%) and the “herbicidal effect, R (Veronica persica)” value (Veronica persica) was 4 (Herbicidal ratio of 70% or more and less than 90%). The “herbicidal effect, H” value [2] was 5 (Herbicidal ratio of 90% or more (almost completely withered)), the “herbicidal effect, I (Avena fatua)” value (Avena fatua) was 3 (Herbicidal ratio of 40% or more and less than 70%) and the “herbicidal effect, G (Setaria viridis)” value (Setaria viridis) was 3 (Herbicidal ratio of 40% or more and less than 70%). For the same molecule, the “herbicidal effect, F” value (Digitaria ciliaris) was 4 (Herbicidal ratio of 70% or more and less than 90%), the “herbicidal effect, P (Stellaria media)” value (Stellaria media) was 5 (Herbicidal ratio of 90% or more (almost completely withered)) and the “herbicidal effect, M” value (Abutilon theophrasti) was 4 (Herbicidal ratio of 70% or more and less than 90%). For the same molecule, the “herbicidal effect, N” value (Amaranthus retroflexus) was 5 (Herbicidal ratio of 90% or more (almost completely withered)), the “herbicidal effect, J” value (Alopecurus myosuroides) was 1 (Herbicidal ratio of 5% or more and less than 20%) and the “herbicidal effect, L” value (Apera spica-venti.) was 1 (Herbicidal ratio of 5% or more and less than 20%). For the same molecule, the “herbicidal effect, Q (Galium spurium)” value (Galium spurium) was 3 (Herbicidal ratio of 40% or more and less than 70%) and the “b (effect on crop grade)” value [3] was 4 (Herbicidal ratio of 70% or more and less than 90%).
`CC(C)N(C)c1nnc2c(C(=O)Nc3nnnn3C)ccc(C(F)(F)F)n12` [2-082] was tested, and the “H (herbicidal effect grade)” value [1] was 5 (Herbicidal ratio of 90% or more (almost completely withered)), the “E (herbicidal effect grade)” value (Cyperus difformis) was 5 (Herbicidal ratio of 90% or more (almost completely withered)) and the “D (herbicidal effect grade)” value (Leptochloa chinensis) was 5 (Herbicidal ratio of 90% or more (almost completely withered)). The “herbicidal effect, O (Chenopodium album)” value (Chenopodium album) was 5 (Herbicidal ratio of 90% or more (almost completely withered)), the “herbicidal effect, K” value (Lolium multiflorum Lam.) was 4 (Herbicidal ratio of 70% or more and less than 90%) and the “herbicidal effect, R (Veronica persica)” value (Veronica persica) was 4 (Herbicidal ratio of 70% or more and less than 90%). For the same molecule, the “herbicidal effect, H” value [2] was 5 (Herbicidal ratio of 90% or more (almost completely withered)), the “herbicidal effect, I (Avena fatua)” value (Avena fatua) was 2 (Herbicidal ratio of 20% or more and less than 40%) and the “herbicidal effect, G (Setaria viridis)” value (Setaria viridis) was 5 (Herbicidal ratio of 90% or more (almost completely withered)). For the same molecule, the “herbicidal effect, F” value (Digitaria ciliaris) was 5 (Herbicidal ratio of 90% or more (almost completely withered)), the “herbicidal effect, P (Stellaria media)” value (Stellaria media) was 5 (Herbicidal ratio of 90% or more (almost completely withered)) and the “herbicidal effect, M” value (Abutilon theophrasti) was 5 (Herbicidal ratio of 90% or more (almost completely withered)). For the same molecule, the “herbicidal effect, N” value (Amaranthus retroflexus) was 5 (Herbicidal ratio of 90% or more (almost completely withered)), the “herbicidal effect, J” value (Alopecurus myosuroides) was 4 (Herbicidal ratio of 70% or more and less than 90%) and the “herbicidal effect, L” value (Apera spica-venti.) was 4 (Herbicidal ratio of 70% or more and less than 90%). For the same molecule, the “herbicidal effect, Q (Galium spurium)” value (Galium spurium) was 4 (Herbicidal ratio of 70% or more and less than 90%) and the “b (effect on crop grade)” value [3] was 5 (Herbicidal ratio of 90% or more (almost completely withered)).
